Test results as given in patent US6632829B2, “Sulfonamides and derivatives thereof that modulate the activity of endothelin” (Texas Biotechnology Corp., priority 1996, dated 2003).
Several values for one entry are separate records, joined by “and”; a condition that tells them apart may be missing. Equal values may be shown once. Where a name gives a salt, the structure may show the parent alone.

How the values were obtained:
human ETB receptor = molecular target: T1, human ETB receptor (Homo sapiens, UniProt P24530); experiment: Endothelin binding inhibition, Binding Test #2: competition with 125I-ET-1 for ETB receptors on transfected COS7 cell membranes
T1 construct: expressed in transfected cells; host or cells: COS7 cells
T1 sequence (P24530 27-442): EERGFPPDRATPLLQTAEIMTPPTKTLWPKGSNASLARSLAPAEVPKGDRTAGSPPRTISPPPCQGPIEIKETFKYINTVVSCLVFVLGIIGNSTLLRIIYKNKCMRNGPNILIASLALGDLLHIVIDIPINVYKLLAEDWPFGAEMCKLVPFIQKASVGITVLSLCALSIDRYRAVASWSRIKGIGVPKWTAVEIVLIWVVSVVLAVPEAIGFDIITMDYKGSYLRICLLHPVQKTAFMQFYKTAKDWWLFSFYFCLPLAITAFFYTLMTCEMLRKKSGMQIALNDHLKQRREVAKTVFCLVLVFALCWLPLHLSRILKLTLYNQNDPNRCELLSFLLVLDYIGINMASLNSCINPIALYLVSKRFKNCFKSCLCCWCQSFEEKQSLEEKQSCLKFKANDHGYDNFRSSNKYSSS
Source text: Compounds that are potential endothelin antagonists are identified by testing their ability to compete with ^125I-labeled ET-1 for binding to human ETA receptors or ETB receptors present on isolated cell membranes. The effectiveness of the test compound as an antagonist or agonist of the biological tissue response of endothelin can also be assessed by measuring the effect on endothelin induced contraction of isolated rat thoracic aortic rings. The ability of the compounds to act as antagonists or agonists for ETB receptors can be assess by testing the ability of the compounds are to inhibit endothelin-1 induced prostacyclin release from cultured bovine aortic endothelial cells.
COS7 cells were transfected with DNA encoding the ETB receptor, The resulting cells, which express the human ETB receptor, were grown to confluence in T-150 flasks. Membrane was prepared as described above. The binding assay was performed as described above using the membrane preparation diluted with binding buffer to a concentration of 1 μg/50 μL.
(§1) Briefly, the COS7 cells, described above, that had been transfected with DNA encoding the ETB receptor and express the human ETB receptor on their surfaces were grown to confluence in T-175 flasks. Cells from multiple flasks were collected by scraping, pooled and centrifuged for 10 min at 190×g. The cells were resuspended in phosphate buffered saline (PBS) containing 10 mM EDTA using a Tenbroeck homogenizer. The suspension was centrifuged at 4° C. 57,800×g for 15 min, the pellet was resuspended in 5 mL of buffer A (5 mM HEPES buffer, pH 7.4 containing aprotinin (100 KIU/mL)) and then frozen and thawed once. Five mL of Buffer B (5 mM HEPES Buffer, pH 7.4 containing 10 mM MnCl2 and 0.001% deoxyribonuclease Type 1) was added, the suspension mixed by inversion and then incubated at 37° C. for 30 minutes. The mixture was centrifuged at 57,800×g as described above, the pellet washed twice with buffer A and then resuspended in buffer C (30 mM HEPES buffer, pH 7.4 containing aprotinin (100 KIU/mL) to give a final protein concentration of 2 mg/mL.
The binding assay was performed as described above using the membrane preparation diluted to give 1 μg/50 μL of binding buffer.

human ETA receptors = molecular target: T2, human ETA receptors (Homo sapiens, UniProt P25101); experiment: Endothelin binding inhibition, Binding Test #1: competition with 125I-ET-1 for ETA receptors on TE 671 cell membranes
T2 construct: endogenous in cells; host or cells: TE 671 cells (ATCC HTB 139), membrane preparation
T2 sequence (P25101 21-427): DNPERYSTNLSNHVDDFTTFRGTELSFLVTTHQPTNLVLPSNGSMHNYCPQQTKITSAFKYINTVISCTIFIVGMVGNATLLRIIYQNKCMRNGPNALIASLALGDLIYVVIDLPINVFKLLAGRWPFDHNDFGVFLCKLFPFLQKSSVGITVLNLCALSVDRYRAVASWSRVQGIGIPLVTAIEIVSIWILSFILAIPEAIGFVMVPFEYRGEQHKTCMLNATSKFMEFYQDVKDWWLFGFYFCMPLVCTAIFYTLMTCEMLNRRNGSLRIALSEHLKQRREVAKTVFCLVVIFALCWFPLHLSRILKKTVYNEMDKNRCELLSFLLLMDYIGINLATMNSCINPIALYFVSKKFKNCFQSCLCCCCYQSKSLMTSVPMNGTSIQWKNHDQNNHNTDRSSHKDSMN
Procedure: as §1, with “Cells from” for “Briefly, the COS7 cells, described above, that had been transfected with DNA encoding the ETB receptor and express the human ETB receptor on their surfaces were grown to confluence in T-175 flasks. Cells from”, “4° C. at 57,800×g for” for “4° C. 57,800×g for”, “thawed once. 5 mL of” for “thawed once. Five mL of”, “of 2 mg/mL and stored at −70° C. until use.” for “of 2 mg/mL.”
The membrane suspension (50 μL), containing up to 8 μg of membrane protein, was added to each of (A), (B), or (C). […] Alternatively, the incubation was conducted at 24° C.
The supernatant, containing unbound radioactivity, was decanted and the pellet counted on a Genesys multiwell gamma counter. The degree of inhibition of binding (D) was calculated according to the following equation: [formula]
Each test was generally performed in triplicate.

[1] = incubation at 24° C. (values marked †)
[2] = incubation at 4° C. (values without †)

SMILES | IC50 (human ETB receptor; [1]) [µM] | IC50 (human ETA receptors; [1]) | further results
COC(=O)c1c(C)cc(C)c(NC(=O)c2sccc2S(=O)(=O)Nc2onc(C)c2Cl)c1C [N-(4-chloro-3-methyl-5-isoxazolyl)-2-(3-methoxycarbonyl-2,4,6-trimethylphenylaminocarbonyl)thiophene-3-sulfonamide] | 16.5 | 0.000321 µM and 0.00092 µM | –
Cc1noc(NS(=O)(=O)c2ccsc2C(=O)Nc2cc3c(cc2CC(=O)N(C)C)OCO3)c1Cl [N-(4-chloro-3-methyl-5-isoxazolyl)-2-{2-[(dimethylamino)carbonylmethyl]-4,5-(methylenedioxy)phenylaminocarbonyl}thiophene-3-sulfonamide] | 13.8 | 0.009 µM | –
Cc1ccc(-c2ccc(S(=O)(=O)Nc3noc(C)c3Br)s2)cc1 [N-(4-bromo-5-methyl-3-isoxazolyl)-5-(4-methylphenyl)thiophene-2-sulfonamide] | 0.25 | 15.8 µM | IC50 (human ETB receptor; [2]): 0.359 µM; IC50 (human ETA receptors; [2]): 7.1 µM
Cc1cc(C)c(CNC(=O)c2sccc2S(=O)(=O)Nc2onc(C)c2Cl)c(C)c1 [N-(4-chloro-3-methyl-5-isoxazolyl)-2-(2,4,6-trimethylbenzylaminocarbonyl)thiophene-3-sulfonamide] | 69.2 | – | –
Cc1cc2c(cc1C(C)C(=O)c1sccc1S(=O)(=O)Nc1onc(C)c1Cl)OCO2 (stereo not drawn) [N-(4-chloro-3-methyl-5-isoxazolyl)-2-(α-methyl-2-methyl-4,5-(methylenedioxy)phenylacetyl)thiophene-3-sulfonamide] | – | 0.0853 µM | –
COC(=O)c1cc(OC)c(OC)cc1NC(=O)c1sccc1S(=O)(=O)Nc1onc(C)c1Cl [N-(4-chloro-3-methyl-5-isoxazolyl)-2-[(4,5-dimethoxy-2-methoxycarbonylphenyl)aminocarbonyl]thiophene-3-sulfonamide] | – | 0.55 µM | –
Cc1cc2c(cc1C(CC(=O)O)C(=O)c1sccc1S(=O)(=O)Nc1onc(C)c1Cl)OCO2 (stereo not drawn) [N-(4-chloro-3-methyl-5-isoxazolyl)-2-(α-carboxylmethyl-2-methyl-4,5-(methylenedioxy)phenylacetyl)thiophene-3-sulfonamide] | – | 0.0811 µM | –
Cc1ccc(NC(=O)c2sccc2S(=O)(=O)Nc2onc(C)c2Cl)c(O)c1 [N-(4-chloro-3-methyl-5-isoxazolyl)-2-[2-hydroxy-4-methylphenyl)aminocarbonyl]thiophene-3-sulfonamide] | – | 0.006 µM | –
COc1ccc(OC(=O)c2sccc2S(=O)(=O)Nc2onc(C)c2C)cc1 [N-(3,4-dimethyl-5-isoxazolyl)-2-[(4-methoxylphenoxy)carbonyl]thiophene-3-sulfonamide] | – | 5.88 µM and 2.5 µM | –
Cc1cc(C)c(NC(=O)c2sccc2S(=O)(=O)Nc2onc(C)c2Cl)c(C(N)=O)c1 [N-(4-chloro-3-methyl-5-isoxazolyl)-2-(2-carbamoyl-4,6-dimethylphenylaminocarbonyl)thiophene-3-sulfonamide] | 11.9 | – | –
Cc1noc(NS(=O)(=O)c2ccsc2C(N)=O)c1Br [N-(4-bromo-3-methyl-5-isoxazolyl)-2-(aminocarbonyl)thiophene-3-sulfonamide] | – | 0.84 µM | –
CC(=O)c1cc2c(cc1NC(=O)c1sccc1S(=O)(=O)Nc1onc(C)c1Cl)OCO2 [N-(4-chloro-3-methyl-5-isoxazolyl)2-{[2-acetyl-4,5-(methylenedioxy)phenyl]aminocarbonyl}thiophene-3-sulfonamide] | 31.6 | – | –
Cc1noc(NS(=O)(=O)c2ccsc2C(=O)c2ccc3c(c2)OCO3)c1Br [N-(4-bromo-3-methyl-5-isoxazolyl)-2-[(3,4-methylenedioxy)benzoyl]thiophene-3-sulfonamide] | 15 | – | –
Cc1noc(NS(=O)(=O)c2ccsc2CCc2ccc3c(c2)OCO3)c1Br [N-(4-bromo-3-methyl-5-isoxazolyl)-2-[(3,4-methylenedioxy)phenethyl]thiophene-3-sulfonamide] | – | 0.21 µM | –

Now from value to molecule, other results behind:

IC50 (human ETB receptor; [1]) [µM] | IC50 (human ETA receptors; [1]) | SMILES | further results
55.1 | 0.324 µM and 0.302 µM | Cc1ccccc1-c1ccsc1S(=O)(=O)Nc1onc(C)c1Br [N-(4-bromo-3-methyl-5-isoxazolyl)-3-(2-tolyl)thiophene-2-sulfonamide] | inhibition at 100 µM (human ETB receptor; read-out: ETB % inhibition @ 100 μM, @ 100 μM, incubation at 24° C.): 31%
– | 0.032 µM | CC(=O)c1cc2c(cc1NC(=O)c1sccc1S(=O)(=O)Nc1onc(C)c1C)OCO2 [N-(3,4-dimethyl-5-isoxazolyl)-2-{[2-acetyl-4,5-(methylenedioxy)phenyl]aminocarbonyl}thiophene-3-sulfonamide] | –
– | 0.13 µM | Cc1nnc(NC(=O)c2sccc2S(=O)(=O)Nc2onc(C)c2Cl)s1 [N-(4-chloro-3-methyl-5-isoxazolyl)-2-[(2-methyl-1,3,4-thiadiazol-5-yl)aminocarbonyl]thiophene-3-sulfonamide] | –
> 50 | – | Cc1noc(NS(=O)(=O)c2ccsc2C(=O)Oc2ccc3c(c2)OCO3)c1C [N-(3,4-dimethyl-5-isoxazolyl)-2-[3,4-(methylenedioxy)phenoxycarbonyl]thiophene-3-sulfonamide] | –
– | 0.334 µM | COc1cccc(-c2ccsc2S(=O)(=O)Nc2onc(C)c2Br)c1 [N-(4-bromo-3-methyl-5-isoxazolyl)-3-(3-methoxyphenyl)thiophene-2-sulfonamide] | –
9.7 | – | Cc1ccc(OC(=O)c2sccc2S(=O)(=O)Nc2onc(C)c2Br)cc1 [N-(4-bromo-3-methyl-5-isoxazolyl)-2-[(4-methylphenoxy)carbonyl]thiophene-3-sulfonamide] | –
– | 1.37 µM | Cc1noc(NS(=O)(=O)c2ccsc2C(=O)OC2CCOCC2)c1Cl [N-(4-chloro-3-methyl-5-isoxazolyl)-2-[(4-oxacyclohexyl)oxycarbonyl]thiophene-3-sulfonamide] | –
6.61 | – | Cc1noc(NS(=O)(=O)c2ccsc2COc2ccc3c(c2)OCO3)c1Br [N-(4-bromo-3-methyl-5-isoxazolyl)-2-{[3,4-(methylenedioxy)phenoxy]methyl}thiophene-3-sulfonamide] | –
– | 1.43 µM | Cc1noc(NS(=O)(=O)c2ccsc2C(=O)Nc2cc3c(cc2C(=O)O)OCO3)c1Cl [N-(4-chloro-3-methyl-5-isoxazolyl)2-{[2-carboxyl-4,5-(methylenedioxy)phenyl]aminocarbonyl}thiophene-3-sulfonamide] | –
– | 0.0134 µM | Cc1cc(C)c(NC(=O)c2sccc2S(=O)(=O)Nc2onc(C)c2Cl)c(C)c1CN(C)C [N-(4-chloro-3-methyl-5-isoxazolyl)-2-(3-dimethylaminomethyl-2,4,6-trimethylphenylaminocarbonyl)thiophene-3-sulfonamide, trifluoroacetic acid salt] | –
